Measured values published in patent US6900238B1, “HIV protease inhibitors” (The Scripps Research Institute, priority 1995, dated 2005).
Where two headings read alike, the source gives them in different places. Peptide text beside a SMILES is read from it. * marks the point of attachment. Cbz = O=C(OCc1ccccc1)*; NHtBu = CC(C)(C)N*

Tests used:
[1] = 13C NMR study of hydration of the ketone moiety in the presence of water; type: physicochemical; conditions: deuterated DMSO/D2O (5:1), incubation for 24 hours
Text: The ketone moiety of the α-keto amide 2 is disclosed to be hydrated and is hydrogen bonding in a similar manner to that of compound 23.

HIV-1 protease [2] = target: T1, HIV-1 protease (Human immunodeficiency virus type 1 group M subtype B, UniProt P03369); assay: HIV protease inhibition, fluorogenic peptide substrate cleavage (IC50 and Ki); type: biochemical; conditions: for IC50: read-out: HIV PR IC50; for Ki: read-out: HIV PR Ki
T1 construct: HIV PR is a 99 amino acid aspartyl protease which functions as a homodimer; made in house; host or cells: no host: total chemical synthesis
Method: The solution was mixed and incubated over 5 minutes during which time the rate of substrate cleavage was monitored by continuously recording the change in fluorescence of the assay solution. An excitation filter of 325 nm, and an emission filter of 420 nm were used.
Determination of Ki for HIV protease was performed similarly with the following modifications. The substrate concentrations used were 57, 43, 28 and 14 μM. All other concentrations were as above. The curve fit for the data was determined and the subsequent Ki derived using a computer program based on the equation of Morrison et. al. BioChim. Biophys. ACTA 1969, 185, 269, for tight binding inhibitors.
The synthetic HIV-protease containing a thioester linkage available from CalBiochem (San Diego) can also be used. The enzyme activity was assayed with the fluorogenic substrate Ac-Thr-Ile-Nle-Phe(P—NO2)-Gln-Arg-NH2 (from CalBiochem, San Diego) according to the procedure described in the literature. Inhibition analysis was performed in the presence of the inhibitor and expressed with IC50 (the concentration of inhibitor that causes 50% inhibition of the enzyme activity).

FIV protease = target: T2, FIV protease (Feline immunodeficiency virus, UniProt P16088); assay: FIV protease inhibition, peptide substrate cleavage by HPLC (IC50 and Ki); type: biochemical
T2 construct: an 18.6 kDa precursor, which auto-processed to a 13.2 kDa FIV PR plus N- and C-terminal fragments; made in house; host or cells: E. coli BL21.DE3, lys S (pT7-7 vector)
Method: For determination of K1 and IC50 for FIV protease, 0.125 μg of the enzyme was added to a solution (100 μL final volume) containing inhibitor, 560 μM peptide substrate (sequence Gly-Lys-Glu-Glu-Gly-Pro-Pro-Gln-Ala-Tyr-Pro-Ile-Gln-Thr-Val-Asn-Gly) and 2% dimethyl sulfoxide in a 1:3 mixture of assay buffer (as above) and 4M NaClaq. solution. The solution was mixed and incubated for 10 minutes at 37° C. and the reaction quenched by addition of 8 M guanidine HCl solution containing 0.2 M sodium acetate at pH 4.2 (100 μL). The cleavage products and substrate were separated by reverse phase HPLC. Absorbance was measured at 215 nm, peak areas were determined and percent conversion to product was calculated using relative peak areas. The data were plotted as 1/V (V=rate substrate is cleaved in nmol/min) against inhibitor concentration and the—Ki determined as the point at which the resulting line intersects with 1/Vmax (Vmax=6.85 nmol/min). IC50 was determined as the inhibitor concentration at 50% inhibition. Vmax (6.85±0.7 nmol min^−1) and Km (707±70 μM) for FIV protease were determined from a plot of 1/V (V=rate in nmol/min) against 1/[S] ([S]=substrate concentration in […]). The data used was generated similarly to that for Ki with the following modifications. The substrate concentrations used were 560, 448, 336, 224, 111 and 56 μM, in the absence of inhibitor.
Purification of FIV protease: A 503 base pair Eco Rl-Bam Hl fragment containing the coding sequence of FIV protease was cloned from FIV-34TF10 (Talbott et. al. Proc. Natl. Acad. Sci. USA 86 1989, 5743) into the pT7-7 vector (Tabor et. al. Proc. Natl. Acad. Sci USA 82 1985, 1074). The 5′ end of the insert was modified by the addition of an Ndel adaptor, which provided the proper reading frame with initiation of translation from the methionine encoded in the latter site. […] The construct was transformed into E. coli strain BL21.DE3, lys S (Studier et. al. Meth. Enzymol. 1990, 185, 60) and overnight cultures were used to inoculate 15 liter fermentations, performed using Circlegrow medium (Bio 101) plus […] ampicillin, 20 μM chloramphenicol, at 37° C. The cells were allowed to reach mid-log phase, then the temperature was reduced to 24° C. and IPTG (isopropylB-thiogalactopyranoside) was added to a final concentration of 1 mM. The fermentation was allowed to proceed for 16 hours, at which time the cells were harvested by centrifugation and frozen at −70° C. in 100 g aliquots for future use.
Cells (100 g) were lysed by addition of 600 mL, 50 mM Tris-HCl, pH 8, 5 mM EDTA and 2 mM 2-mercaptoethanol to the frozen pellet. The cells lysed upon thawing and the viscous mixture was homogenized at 4° C. for 2 min in a Waring blender. The sample was centrifuged at 8,000×g for 20 min and the pellet discarded. […]

HIV-1 protease [3] = target: T1, HIV-1 protease; conditions: known HIV PR inhibitor; cited from earlier work

Molecule: CC(C)(C)NC(=O)[C@@H]1CCCN1C(=O)C(=O)C(Cc1ccccc1)NC(=O)OCc1ccccc1 (mixture of isomers) [Compound 2, (3S) and (3R) 3-(N-Benzyloxycarbonyl)amino-2-keto-4-phenylbutyryl-L-prolyl-tert-butyl Amide]
- hydration of the ketone moiety in the presence of water [1]: remains unhydrated
- fold better than the corresponding hydroxyethylamine isosteric structure as inhibitor of the HIV protease (HIV-1 protease [2]): approximately 300 fold
- fold better than the corresponding phosphinic acid derivative as inhibitor of the HIV protease (HIV-1 protease [2]): ~1300 fold
- IC50 (HIV-1 protease [2]): 0.7 µM
- Ki (HIV-1 protease [2]): 0.214 µM
- time dependent inhibition of HIV PR (HIV-1 protease [2]; time dependent assays): do not exhibit time dependent inhibition
- inhibitory effect against FIV PR (FIV protease; added in concentrations up to 70 mM): no inhibitory effect

Molecule: CC[C@H](C)[C@H](NC(=O)[C@@H]1CCCN1C(=O)C(=O)C(Cc1ccccc1)NC(=O)OCc1ccccc1)C(=O)N[C@@H](CCC(N)=O)C(=O)OC(C)(C)C (mixture of isomers) [Compound 4]
- Ki (HIV-1 protease [2]): 0.154 µM
- IC50 (FIV protease; read-out: FIV PR IC50): 25 µM
- Ki (FIV protease; read-out: FIV PR Ki): 29 µM

Molecule: COC[C@@H]1[C@@H](OC)[C@H](OC)[C@H](COC)N1C(=O)C(=O)C(Cc1ccccc1)NC(=O)OCc1ccccc1 (mixture of isomers) [Compound 12, (3S) and (3R) 3-(N-Benzyloxycarbonyl)amino-2-keto-4-phenylbutyryl-(2′(R), 5′(R)-bis(methoxymethyl]-3′(R), 4′(S)-dimethoxypyrrolidine]]
- IC50 (HIV-1 protease [2]): 20 µM
- Ki (HIV-1 protease [2]): 20 µM

Molecule: CC(C)(C)NC(=O)C1CCCN1C(=O)C(Cc1ccccc1)NC(=O)OCc1ccccc1 (stereo not drawn) [Cbz-Phe-Pro-NBu^t] (Cbz-Phe-Pro-NHtBu; configuration not given here)
- cleavage by HIV protease (HIV-1 protease [2]; normal assay conditions): not cleaved
- cleavage by FIV protease (FIV protease; normal assay conditions): not cleaved

Molecule: COC(=O)[C@@H]1CCCN1C(=O)C(=O)C(Cc1ccccc1)NC(=O)OC(C)(C)C (stereo partly shown) [Compound 1]
- IC50 (HIV-1 protease [2]): 6 µM
- Ki (HIV-1 protease [2]): 6 µM

Molecule: COCC1CCC(COC)N1CC(O)C(Cc1ccccc1)NC(=O)OCc1ccccc1 [Compound 5, N-[1-Phenyl-2(S)-[(benzyloxycarbonyl)amino]-3(R)-hydroxybutan-4-[2′ (R), 5′ (R)-bis(methoxymethyl)]-pyrrolidine]
- IC50 (HIV-1 protease [2]): 1800 µM

Molecule: COCC1C(OC)C(OC)C(COC)N1CC(O)C(Cc1ccccc1)NC(=O)OCc1ccccc1 [Compound 6, N-[1-Phenyl-2(S)-[(benzyloxycarbonyl)amino]-3(R)-hydroxybutan-4-[2′(R), 5′(R)-bis(methoxymethyl)-3′(R), 4′(S)-dimethoxy]-pyrrolidine]
- IC50 (HIV-1 protease [2]): 100 µM

Molecule: COC[C@H]1CCCN1C[C@@H](O)[C@H](Cc1ccccc1)NC(=O)OCc1ccccc1 [Compound 7]
- IC50 (HIV-1 protease [2]): 1600 µM

Molecule: CC(C)(C)NC(=O)[C@@H]1CCCN1C[C@@H](O)[C@H](Cc1ccccc1)NC(=O)OCc1ccccc1 [Compound 8]
- IC50 (HIV-1 protease [2]): 60 µM

Molecule: CO[C@H]1CC(C(=O)NC(C)(C)C)N(C[C@@H](O)[C@H](Cc2ccccc2)NC(=O)OCc2ccccc2)C1 (stereo partly drawn) [Compound 9, N-(1-Phenyl-2(S)-[(benzyloxycarbonyl)amino]-3(R)-hydroxybutan-4-(tert-butylamido)-4′(S)-methoxy]-pyrrolidine]
- IC50 (HIV-1 protease [2]): 17 µM

Molecule: CO[C@@H]1C[C@@H](C(=O)NC(C)(C)C)N(C[C@@H](O)[C@H](Cc2ccccc2)NC(=O)OCc2ccccc2)C1 [Compound 10]
- IC50 (HIV-1 protease [2]): 2.9 µM

Molecule: CC(C)(C)NC(=O)[C@@H]1C[C@@H](OCc2ccccc2)CN1C[C@@H](O)[C@H](Cc1ccccc1)NC(=O)OCc1ccccc1 [Compound 11]
- IC50 (HIV-1 protease [2]): 3.9 µM

Molecule: CC(C)(C)NC(=O)[C@@H]1CCCN1C(=O)[C@H](O)[C@H](Cc1ccccc1)NC(=O)OCc1ccccc1 [Compound 23, (2S, 3R) and (2S, 3S) 3-(N-Benzyloxycarbonyl)amino-2-hydroxy-4-phenylbutyryl-L-prolyl-tert-butyl Amide]
- IC50 (HIV-1 protease [2]): 300 µM

Molecule: O=C1N(Cc2ccc(CO)cc2)[C@H](Cc2ccccc2)[C@H](O)[C@@H](O)[C@@H](Cc2ccccc2)N1Cc1ccc(CO)cc1 [DMP 323]
- IC50 (HIV-1 protease [3]): 0.036 µM
- Ki (HIV-1 protease [3]): 0.00027 µM

Molecule: CSC[C@H](NC(=O)COc1cccc2cnccc12)C(=O)N[C@@H](Cc1ccccc1)[C@H](O)C(=O)N1CSC[C@H]1C(=O)NC(C)(C)C [KNI-272, reference compound]
- Ki against HIV PR relative to compound 2 (HIV-1 protease [2]; compared with 2): almost five orders of magnitude lower

Molecule: (2S, 3R) and (2S, 3S) 3-(N-Benzyloxycarbonyl)amino-2-hydroxy-4-phenylbutyryl-L-prolyl-tert-butyl Amide [Compound 24]
- IC50 (HIV-1 protease [2]): 2 µM
